Source: ChEMBL document CHEMBL3233002, “Discovery of potent Keap1-Nrf2 protein-protein interaction inhibitor based on molecular binding determinants analysis” (J Med Chem, 2014)

Assays:
[1] = molecular target: Kelch-like ECH-associated protein 1 (Homo sapiens) (UniProt Q14145); assay: Inhibition of Keap1-Nrf2 interaction in human HepG2-ARE-C8 cells assessed as activation of Nrf2-ARE luciferase activity at 20 uM after 12 hrs relative to control; format: cell-based
[2] = molecular target: Kelch-like ECH-associated protein 1 (Homo sapiens) (UniProt Q14145); assay: Inhibition of Keap1-Nrf2 interaction in human HepG2-ARE-C8 cells assessed as activation of Nrf2-ARE luciferase activity at 40 uM after 12 hrs relative to control; format: cell-based
[3] = molecular target: Kelch-like ECH-associated protein 1 (Homo sapiens) (UniProt Q14145); assay: Inhibition of Keap1-Nrf2 interaction in human HepG2-ARE-C8 cells assessed as activation of Nrf2-ARE luciferase activity at 80 uM after 12 hrs relative to control; format: cell-based
[4] = Partition coefficient, log D of the compound at pH 7.4; format: physicochemical; conditions: octanol/water
HCT-116 = assay: Cytotoxicity against human HCT116 cells at 10 uM; format: cell-based; conditions: hct-116, 10 µM
[5] = Dissociation constant, pKa of the compound; format: physicochemical

Sequence of Kelch-like ECH-associated protein 1 (Homo sapiens) (Q14145 whole entry): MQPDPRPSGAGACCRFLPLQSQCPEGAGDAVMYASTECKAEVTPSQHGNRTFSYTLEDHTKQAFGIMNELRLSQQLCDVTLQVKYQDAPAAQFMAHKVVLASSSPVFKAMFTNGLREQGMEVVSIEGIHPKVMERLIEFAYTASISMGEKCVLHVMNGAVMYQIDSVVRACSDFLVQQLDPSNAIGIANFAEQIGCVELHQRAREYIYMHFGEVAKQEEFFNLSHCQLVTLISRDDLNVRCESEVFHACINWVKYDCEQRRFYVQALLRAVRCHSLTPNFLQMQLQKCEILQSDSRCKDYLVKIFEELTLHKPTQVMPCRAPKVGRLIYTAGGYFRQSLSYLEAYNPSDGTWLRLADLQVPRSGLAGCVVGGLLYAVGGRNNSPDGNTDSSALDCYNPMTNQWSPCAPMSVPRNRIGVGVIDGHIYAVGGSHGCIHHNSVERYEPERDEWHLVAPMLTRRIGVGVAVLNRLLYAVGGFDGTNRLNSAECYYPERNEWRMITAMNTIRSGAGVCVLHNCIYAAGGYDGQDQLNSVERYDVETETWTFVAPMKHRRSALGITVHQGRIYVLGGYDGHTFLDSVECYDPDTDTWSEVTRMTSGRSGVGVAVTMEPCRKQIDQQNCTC

## C[S+]([O-])CCCCN=C=S (configuration not stated)
[1]
  fold change (FC): 18.1

## CC(C)(C)c1cc(O)ccc1O
[2]
  fold change (FC): 3.81
[1]
  fold change (FC): 2.22
[3]
  fold change (FC): 6.21

## COc1ccc(S(=O)(=O)N(CC(=O)O)c2ccc(N(CC(=O)O)S(=O)(=O)c3ccc(OC)cc3)c3ccccc23)cc1
[4]
  logD: 1.71
HCT-116
  Activity: Non-toxic
[5]
  pKa: 4.62
